Data: US20250009743A1, “METHODS OF TREATING CANCERS USING STING AGONISTS” (Dana-Farber Cancer Institute, Inc., priority 2021, published 2025)
pIC50: −log10 of the molar value.

How the values were obtained:
BP tumors = assay: Flow cytometry of intratumoral immune cells of BP tumors; assay type: in vivo, mouse
Procedure: To obtain single-cell suspensions, tumors were excised, minced and dissociated in collagenase/hyaluronidase buffer [DMEM with 5% FBS, 10 mM HEPES (Gibco), 100 μg/mL penicillin-streptomycin, 20 μg/mL DNase I (StemCell) and 1× collagenase/hyaluronidase (StemCell)] for 45 min at 37° C. with agitation, followed by treatment with ammonium-chloride-potassium (ACK) buffer (Lonza) for red blood cell (RBC) lysis, and strained through a 70 μm strainer to remove undigested tumor tissues. Spleens and tumor-draining lymph nodes (TDLNs) were mechanically dissociated by passing the tissues through a 70 μm strainer using the plunger of a 5 ml syringe, and RBCs were lysed as described above.
For flow cytometry analyses of tumor and TDLN samples, single-cell suspensions were obtained as described above (Tissue Digestion). Cells were stained in cold FACS buffer (PBS containing 0.2% BSA and 5 mM EDTA) with LIVE/DEAD Fixable Aqua Dead Cell Stain (Thermo Fisher) for 30 min on ice, followed by blocking with anti-CD16/32 (BioLegend) for 20 min on ice. Cells were then incubated in FACS buffer for 30 min on ice with antibodies specific to CD45 (clone 30-F11, BioLegend), TCR β chain (clone H57-597, BioLegend), CD38 (clone 145-2C11, BioLegend), CD4 (clone RM4-5, BioLegend), CD8a (clone 53-6.7, BioLegend), PD-1 (clone 29F.1A12, BioLegend), CD44 (clone IM7, BioLegend), CD62L (clone MEL-14, BioLegend), IFN-γ (clone XMG1.2, BioLegend), TNF-α (clone MP6-XT22, BioLegend), Granzyme B (clone NGZB, eBioscience), CD11c (clone N418, BioLegend), I-A/I-E (clone M5/114.15.2, BioLegend), CD80 (clone 16-10A1, BioLegend), CD86 (clone GL-1, BioLegend), CD103 (clone 2E7, BioLegend), CD11b (M1/70, BioLegend), F4/80 (clone BM8, BioLegend), phospho-TBK1 (Ser172) (clone D52C2, Cell Signaling Tech.) or phospho-IRF-3 (Ser396) (clone D601M, Cell Signaling Tech.). For intracellular staining, Foxp3/Transcription Factor Staining Buffer Set (eBioscience, #00-5523-00) was used for fixation and permeabilization. For cytokine analysis, cells were stimulated with Leukocyte Activation Cocktail with protein transport inhibitor Brefeldin A (BD Biosciences, #550583) at 37° C. for 4 hours prior to the staining. Analysis of ϵ-HA2X (Ser139) was performed according to manufacturer's instructions. Briefly, ice-cold 70% ethanol (Decon) was added dropwise to the cell pellet while vortexing. Cells were then incubated at −20° C. for 1 hour and washed three times with cold staining buffer. For the staining, 5 μL p-HA2X antibody (clone 2F3, BioLegend) was added to approximately 1×10^6 cells in 100 μL staining buffer and incubated at 4° C. for 30 min. For Annexin V and 7-AAD staining, cells were detached with accutase (Sigma, #A6964). […] All data were analyzed using FlowJo software.

PBM-R tumors = assay: Flow cytometry of tumor-infiltrating immune cells in PBM-R tumor-bearing mice; assay type: in vivo, mouse; conditions: 14 days; for STING pathway and activated (CD86^+) conventional DCs (cDCs): FIG. 23D
Procedure: Tumors were chopped and digested in collagenase buffer as described previously (Ding et al., 2018 Cell Rep 25, 2972-2980.e2975). Single cell suspensions of tumor and ascites were obtained by filtering through 70 um strainers and treated with 1× eBioscience RBC lysis buffer (Thermo Fisher) before staining. Single cells suspensions were incubated with LIVE/DEAD Fixable Aqua Dead Cell Stain (Life Technologies, Cat #L34965) for 30 min and then blocked with anti-CD16/32 (Biolegend, clone 93) for 20 min on ice. Samples were then incubated with appropriate antibodies for 30 min on ice. Foxp3 staining buffer set (eBioscience, Cat #00-5523-00) was applied for intracellular markers staining. For the intracellular cytokine analysis, cells were stimulated with Leukocyte Activation Cocktail (BD Biosciences, Cat #550583) at 37° C. for 4-6 hours prior to FACS staining. The following antibodies were used in this study: antibodies were purchased from BioLegend unless otherwise indicated: CD45 (clone 30-F11), CD3ε (clone 145-2C11), CD4 (clone RM4-5), CD8 (clone 53-6.7), CD44 (clone IM7), CD62L (MEL-14), CD25 (PC61), IFNγ (clone XMG1.2), TNFα (clone MP6-XT22), CD11b (clone M1/70), CD11c […], F4/80 (clone BM8), Ly-6C (clone HK1.4), Ly-6G (clone 1A8), MHC-II (clone M5/114.15.2), CD80 (clone 16-10A1), CD86 (clone GL-1), MHC-I (clone KH114), FoxP3 (clone FJK-16 s; eBioscience), Phospho-IRF-3 (Ser396) (clone D601M, Cell signaling technology) and Phospho-TBK1/NAK (Ser172) (clone D52C2, Cell signaling technology). The following human antibodies were used in this study: cell surface markers includes CD45 (clone H130), CD11b (clone M1/70), CD11c (clone Bu15), CD80 (clone 2D10), CD86 (clone IT2.2), CD14 (clone 63D3), CD15 […], HLA-DR (clone L243) and HLA-A,B,C (clone W6/32); intracellular markers include CD163 (clone GHI/61), CD68 (clone Y1/82A) and CD206 (clone 15-2). Flow cytometry was performed on an LSRII (BD Biosciences) or Fortessa HTS (BD Biosciences) at DFCI Flow Cytometry Core, and all the data were analyzed using FlowJo software.

PBM tumor cells = assay: Measurement of IC50 value in PBM tumor cells (CellTiter-Glo); assay type: cell-based; conditions: Mus musculus; reference value for the PBM-R3 fold; 72 h
Procedure: Tumor cells were seeded in 96-well plates at a density of 2000-3000/well and allowed to adhere overnight. Cells were then exposed to appropriate concentrations of therapeutic agents (or vehicle control) with continuous exposure for 72 h. Growth inhibition was measured by CellTiter-Glo® 2.0 Cell Viability Assay from Promega according to manufactory's introduction. IC50 values were calculated using non-linear regression model (logarithmic inhibitor vs. normalized response-variable slope) in Graphpad Prism 9.

SMILES | production of anti-tumor cytokines (IFNg, Granzyme B, TNFa) in CD8+ and CD4+ T cells (BP tumors; after 21 days of treatments, DMXAA intratumoral, FIG. 9B-9C) | proportion of TAMs (PBM-R tumors; FIG. 23B) | ratio of M1/M2 (PBM-R tumors; FIG. 23C) | STING pathway and activated (CD86^+) conventional DCs (cDCs) (PBM-R tumors) | population of tumor-associated macrophages (TAMs) (BP tumors; 21 days of treatment) | CD8+ T cells and effector CD8+ T cells in tumors (BP tumors; after seven days of treatment) | proportion of PD-1+CD8+ T cells (BP tumors; after seven days of treatment) | pIC50 (PBM tumor cells)
Cc1ccc2c(=O)c3cccc(CC(=O)O)c3oc2c1C [DMXAA, 5,6-dimethyl-xanthenone-4-acetic acid] | strongly up-regulated |  |  |  |  |  |  | 
COc1cc2cc(C(=O)CCC(=O)O)sc2cc1OC [MSA-2] |  | dramatically decreased | increase | activated the STING pathway and increased tumor-infiltrating activated (CD86^+) conventional DCs |  |  |  | 
O=C(c1cc(Cc2n[nH]c(=O)c3ccccc23)ccc1F)N1CCN(C(=O)C2CC2)CC1 [olaparib] |  |  |  | activated the STING pathway and increased tumor-infiltrating activated (CD86^+) conventional DCs | not significantly affected | not significantly changed | increased | 6.25
